Results reported in ChEMBL document CHEMBL1201862, “PubChem BioAssay data set” (2004).
Activity calls are given as the source filed them.

Key:
[1] = reduced cellular PGC1a acetyl-lysine signal – cell-based, cherry-picked samples, dose response (AID 720514); type: functional;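 also: potency may reflect raised or lowered acetylation signal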
[2] = blockade of melanocortin 4 receptor signaling – cell-based, plate reader, cherry pick, counter-screen for LGR2 antagonist project, dose response (AID 743444); type: functional;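 also: transfected HEK 293 cells stimulated with alpha-MSH peptide; potency of inhibitors of the alpha-MSH evoked signal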
Protein RecA = target: T1, Protein RecA (Mycobacterium tuberculosis, UniProt P9WHJ3); assay: Fluorescence Cell-Free Homogeneous Dose Retest to Identify Inhibitors of RecA-Intein Splicing Activity. [Related pubchem assays (depositor defined):AID2097, AID2223, AID489010, AID492950]; type: functional
T1 sequence (P9WHJ3 whole entry): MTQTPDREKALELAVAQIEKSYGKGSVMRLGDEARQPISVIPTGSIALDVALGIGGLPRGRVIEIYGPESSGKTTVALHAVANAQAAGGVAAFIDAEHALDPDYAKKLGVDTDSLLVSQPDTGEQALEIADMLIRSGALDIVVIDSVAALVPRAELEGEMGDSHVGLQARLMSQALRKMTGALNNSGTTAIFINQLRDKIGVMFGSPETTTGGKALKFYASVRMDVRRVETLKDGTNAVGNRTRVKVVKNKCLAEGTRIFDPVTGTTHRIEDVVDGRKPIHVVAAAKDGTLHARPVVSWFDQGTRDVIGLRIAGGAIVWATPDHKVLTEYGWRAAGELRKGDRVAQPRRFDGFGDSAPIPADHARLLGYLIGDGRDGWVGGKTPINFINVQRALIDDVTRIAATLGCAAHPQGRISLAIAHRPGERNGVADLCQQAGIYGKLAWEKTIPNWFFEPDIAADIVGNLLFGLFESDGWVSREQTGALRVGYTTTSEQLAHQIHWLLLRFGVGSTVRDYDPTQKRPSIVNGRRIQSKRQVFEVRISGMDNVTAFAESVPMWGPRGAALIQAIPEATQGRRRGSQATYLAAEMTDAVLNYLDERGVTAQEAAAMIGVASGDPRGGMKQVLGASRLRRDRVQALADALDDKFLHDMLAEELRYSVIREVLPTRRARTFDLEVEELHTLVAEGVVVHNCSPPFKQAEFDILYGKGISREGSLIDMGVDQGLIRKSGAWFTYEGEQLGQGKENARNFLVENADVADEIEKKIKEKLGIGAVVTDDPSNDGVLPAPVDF

CHO = CHO cell viability loss, potency – luminescence, cytotoxicity control for TLR9-MyD88 binding inhibitor project, dose response (AID 588339); type: functional, cell-based, hamster; conditions: Cricetulus griseus;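 also: CHO cells stably coexpressing TLR9 and MyD88 fusions from primary screen; compound exposure lasted 48 hours before viability readout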
[3] = NIH3T3 cell viability loss – ATP luminescence, mouse fibroblasts, counter-screen, dose response (AID 2010); type: functional, cell-based;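 also: cells exposed to compound for about 90 hours before reading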
[4] = toxicity toward HepG2 liver cells – cell-based, plate reader, cherry-pick, antagonist series, cytotoxicity control, dose response (AID 743416); type: functional
[5] = reduction of Shn3 3'UTR-driven luciferase in osteoblasts – cell-based, Clone20 osteoblasts, firefly luciferase, cherry-picked, dose response (AID 624132); type: functional;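 also: firefly luciferase luminescence from reporter carrying the Shn3 3'UTR in osteoblasts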
[6] = loss of viability in HepG2 cells – cell-based, CellTiter-Glo, cherry-picked, cytotoxicity control for Shn3 inhibitor project, dose response (AID 624134); type: functional
[7] = non-specific 3'UTR reporter inhibition in Clone20-Shn3RL – cell-based, Renilla luciferase, cherry-picked, counter-screen for Shn3 inhibitor project, dose response (AID 624133); type: functional
[8] = target: T2, Polyadenylate-binding protein 1 (Homo sapiens, UniProt P11940); assay: MLLE domain peptide-binding blockers, IC50 – biochemical, fluorescence polarization, FITC-PAM2 peptide, dose response (AID 602259); type: functional; conditions: read-out: IC50_Mean
[9] = target: Heat shock protein HSP 90-alpha (Homo sapiens, UniProt P07900); type: functional, organism-based
[10] = target: T3, Replicative DNA helicase DnaB (Mycobacterium tuberculosis, UniProt P9WMR3); assay: DnaB intein splicing inhibitors, dose response, biochemical, cell-free fluorescence (AID 449749); type: functional
T3 sequence (P9WMR3 whole entry): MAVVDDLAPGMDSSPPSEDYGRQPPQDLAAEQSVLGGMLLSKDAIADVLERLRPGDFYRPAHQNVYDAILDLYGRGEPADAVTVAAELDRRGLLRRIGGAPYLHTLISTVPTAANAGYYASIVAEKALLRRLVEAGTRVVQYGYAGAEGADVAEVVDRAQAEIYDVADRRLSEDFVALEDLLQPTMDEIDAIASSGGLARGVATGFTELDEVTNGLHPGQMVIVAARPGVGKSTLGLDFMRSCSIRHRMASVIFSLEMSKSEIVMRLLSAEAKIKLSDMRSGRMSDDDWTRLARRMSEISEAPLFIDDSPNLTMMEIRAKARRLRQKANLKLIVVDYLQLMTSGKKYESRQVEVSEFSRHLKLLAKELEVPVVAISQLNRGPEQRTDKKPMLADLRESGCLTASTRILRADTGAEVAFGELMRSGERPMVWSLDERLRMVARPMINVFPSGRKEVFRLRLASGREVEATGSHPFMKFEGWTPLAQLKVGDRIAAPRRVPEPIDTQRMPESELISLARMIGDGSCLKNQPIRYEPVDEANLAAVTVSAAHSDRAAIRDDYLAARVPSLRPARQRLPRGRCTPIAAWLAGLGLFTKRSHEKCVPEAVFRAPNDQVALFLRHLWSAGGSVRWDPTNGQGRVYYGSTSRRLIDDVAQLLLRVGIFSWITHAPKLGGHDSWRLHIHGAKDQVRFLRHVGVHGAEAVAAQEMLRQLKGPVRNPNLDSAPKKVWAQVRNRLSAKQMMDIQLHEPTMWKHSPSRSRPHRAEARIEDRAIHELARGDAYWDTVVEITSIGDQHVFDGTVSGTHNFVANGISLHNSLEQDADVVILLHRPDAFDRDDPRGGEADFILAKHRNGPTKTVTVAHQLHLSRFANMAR

[11] = Trypanosoma cruzi growth suppression in host cells – NIH3T3 host cells, beta-gal luminescence, confirmation (AID 2044); type: functional, cell-based;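 also: intracellular parasites grown in NIH/3T3 mouse fibroblasts as host cells; luminescent beta-galactosidase reporter signal from transgenic T. cruzi replicating inside host cells; inhibitors lower the luminescence signal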
[12] = A549 cell cytotoxicity, dose response, cytotoxicity control, plate reader, cherry-pick, antagonist series (AID 743412); type: functional, cell-based
[13] = target: Bifunctional protein GlmU (Mycobacterium tuberculosis, UniProt P9WMN3); assay: Inhibitors of Mycobacterial Glucosamine-1-phosphate acetyl transferase (GlmU). Secondary screen.; parameters: species or system Mycobacterium tuberculosis H37Rv
[14] = target: T4, Short transient receptor potential channel 4 (Mus musculus, UniProt Q9QUQ5); assay: block of DAMGO-driven TRPC4 calcium entry – cell-based, HEK293 TRPC4/mu-opioid, Fluo-4 calcium, dose response (AID 434942); type: functional;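 also: potency of inhibitors blocking the TRPC4 calcium response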
T4 sequence (Q9QUQ5 whole entry): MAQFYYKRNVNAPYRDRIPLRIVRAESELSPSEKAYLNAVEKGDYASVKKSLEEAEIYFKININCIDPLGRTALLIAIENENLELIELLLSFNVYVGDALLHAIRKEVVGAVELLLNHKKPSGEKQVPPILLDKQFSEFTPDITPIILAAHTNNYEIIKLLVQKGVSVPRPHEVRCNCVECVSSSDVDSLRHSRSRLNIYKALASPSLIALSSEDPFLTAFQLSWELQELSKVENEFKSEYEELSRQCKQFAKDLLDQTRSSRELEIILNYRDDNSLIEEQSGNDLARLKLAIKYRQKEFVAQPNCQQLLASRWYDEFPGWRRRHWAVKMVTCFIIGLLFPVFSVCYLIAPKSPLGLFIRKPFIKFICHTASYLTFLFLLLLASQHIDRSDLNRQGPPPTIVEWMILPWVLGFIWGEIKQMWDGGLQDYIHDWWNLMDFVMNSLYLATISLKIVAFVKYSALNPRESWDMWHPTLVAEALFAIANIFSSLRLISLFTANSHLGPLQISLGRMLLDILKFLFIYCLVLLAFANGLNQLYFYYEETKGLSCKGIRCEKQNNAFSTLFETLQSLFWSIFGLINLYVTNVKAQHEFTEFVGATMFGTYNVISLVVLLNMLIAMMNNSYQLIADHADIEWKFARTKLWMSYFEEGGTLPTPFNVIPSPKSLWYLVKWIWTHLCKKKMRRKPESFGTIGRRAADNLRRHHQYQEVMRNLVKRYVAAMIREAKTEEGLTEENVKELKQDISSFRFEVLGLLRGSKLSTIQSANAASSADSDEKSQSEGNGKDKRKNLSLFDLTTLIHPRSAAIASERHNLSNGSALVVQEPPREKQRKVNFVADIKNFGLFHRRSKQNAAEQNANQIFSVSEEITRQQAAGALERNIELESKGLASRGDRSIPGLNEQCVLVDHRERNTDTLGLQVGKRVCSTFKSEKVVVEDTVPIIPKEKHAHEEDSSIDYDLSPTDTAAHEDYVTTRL

Beta Lactamase = Beta Lactamase (Pseudomonas aeruginosa, UniProt Q932Y6); assay: BLA reporter interference, concentration series – BLA reporter cells, FRET fluorescence, artefact control for TLR9-MyD88 binding inhibitor project, dose response (AID 588341); type: cell-based;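 also: cell based assay in CHO-K1 cells stably expressing beta-lactamase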
[15] = target: T2, Polyadenylate-binding protein 1; assay: MLLE binding blockers, Cy5 peptide tracer – biochemical, fluorescence polarization, Cy5-PAM2 peptide, secondary, miRNA deadenylation inhibitor project, dose response (AID 602260); type: functional; conditions: read-out: IC50_Mean
[16] = blockers of bursicon-stimulated LGR2 cAMP reporter – cell-based, HEK293, CRE-luciferase reporter, cherry pick, set 2, dose response (AID 743343); type: functional;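 also: transfected cells were stimulated with diluted bursicon conditioned medium after compound addition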
[17] = viability loss in HEK293 cells – cell-based, plate reader, cherry-picked samples, cytotoxicity control, dose response (AID 743446); type: functional
[18] = target: T5, Tyrosine-protein phosphatase non-receptor type 7 (Homo sapiens, UniProt P35236); assay: HePTP tyrosine phosphatase activity blockers – biochemical, absorbance, leukemia target, primary screen (AID 521); type: functional
T5 sequence (P35236 whole entry): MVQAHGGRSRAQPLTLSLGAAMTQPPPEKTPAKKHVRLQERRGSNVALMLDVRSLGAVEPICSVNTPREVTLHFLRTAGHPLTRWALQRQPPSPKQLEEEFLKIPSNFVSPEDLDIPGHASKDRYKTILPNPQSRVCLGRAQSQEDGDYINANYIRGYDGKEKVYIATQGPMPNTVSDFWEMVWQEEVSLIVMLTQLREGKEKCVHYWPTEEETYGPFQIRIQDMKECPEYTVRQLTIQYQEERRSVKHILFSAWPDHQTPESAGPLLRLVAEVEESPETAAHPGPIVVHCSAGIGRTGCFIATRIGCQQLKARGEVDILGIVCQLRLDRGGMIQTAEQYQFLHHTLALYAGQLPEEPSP

Prothrombin [19] = target: Prothrombin (Homo sapiens, UniProt P00734); assay: Thrombin 1536 HTS Dose Response Confirmation. [Related pubchem assays: 1046 (Thrombin 1536 HTS; hits were confirmed in this assay)]; type: functional
Streptococcus = assay: GAS UMAA2166 growth inhibition – luminescence, BacTiterGlo, counter-screen for streptokinase expression inhibitor project, dose response (AID 1915); type: functional, organism-based;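 also: potency for reduction of bacterial viability or growth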
[20] = target: 72 kDa type IV collagenase (Homo sapiens, UniProt P08253); assay: Dose Response validation of uHTS RPN11 inhibitor hits using a MMP-2 Fluorescence assay.; type: functional
[21] = target: 26S proteasome non-ATPase regulatory subunit 14 (Homo sapiens, UniProt O00487); assay: inhibition of proteasome subunit RPN11 – biochemical, fluorescence polarization, uHTS hits, confirmation (AID 602368); type: functional
Streptokinase A = target: T6, Streptokinase A (Streptococcus pyogenes serotype M1, UniProt P10520); assay: viability-normalized secreted streptokinase activity reduction – plasminogen activation absorbance, OD405, dose response (AID 1914); type: functional, Streptococcus pyogenes M1 GAS;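 also: secreted streptokinase activity via plasminogen activation per viability signal from cell pellet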
T6 sequence (P10520 whole entry): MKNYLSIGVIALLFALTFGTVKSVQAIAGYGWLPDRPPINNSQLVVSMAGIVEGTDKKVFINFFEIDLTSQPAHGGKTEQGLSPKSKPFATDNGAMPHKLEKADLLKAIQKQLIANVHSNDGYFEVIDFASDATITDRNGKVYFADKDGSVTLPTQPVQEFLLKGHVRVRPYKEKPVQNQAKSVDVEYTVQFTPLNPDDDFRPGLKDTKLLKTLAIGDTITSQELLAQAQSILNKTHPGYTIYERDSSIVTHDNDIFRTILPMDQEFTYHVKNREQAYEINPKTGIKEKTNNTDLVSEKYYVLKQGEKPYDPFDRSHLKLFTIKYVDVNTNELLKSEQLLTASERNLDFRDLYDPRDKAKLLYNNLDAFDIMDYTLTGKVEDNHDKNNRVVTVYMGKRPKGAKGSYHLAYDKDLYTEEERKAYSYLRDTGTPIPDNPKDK

Prothrombin [22] = target: Prothrombin (Bos taurus, UniProt P00735); assay: thrombin protease inhibitors – biochemical, fluorescence polarization, uHTS hits, dose response (AID 602369); type: functional
[23] = system: Streptococcus sp. 'group A'; assay: Streptococcus pyogenes SK(-)GAS viability under kanamycin – luminescence, BacTiterGlo, confirmation, counter-screen for streptokinase expression inhibitor project, dose response (AID 1900); type: functional, organism-based

T2 sequence (P11940 whole entry, the tested form may be a part): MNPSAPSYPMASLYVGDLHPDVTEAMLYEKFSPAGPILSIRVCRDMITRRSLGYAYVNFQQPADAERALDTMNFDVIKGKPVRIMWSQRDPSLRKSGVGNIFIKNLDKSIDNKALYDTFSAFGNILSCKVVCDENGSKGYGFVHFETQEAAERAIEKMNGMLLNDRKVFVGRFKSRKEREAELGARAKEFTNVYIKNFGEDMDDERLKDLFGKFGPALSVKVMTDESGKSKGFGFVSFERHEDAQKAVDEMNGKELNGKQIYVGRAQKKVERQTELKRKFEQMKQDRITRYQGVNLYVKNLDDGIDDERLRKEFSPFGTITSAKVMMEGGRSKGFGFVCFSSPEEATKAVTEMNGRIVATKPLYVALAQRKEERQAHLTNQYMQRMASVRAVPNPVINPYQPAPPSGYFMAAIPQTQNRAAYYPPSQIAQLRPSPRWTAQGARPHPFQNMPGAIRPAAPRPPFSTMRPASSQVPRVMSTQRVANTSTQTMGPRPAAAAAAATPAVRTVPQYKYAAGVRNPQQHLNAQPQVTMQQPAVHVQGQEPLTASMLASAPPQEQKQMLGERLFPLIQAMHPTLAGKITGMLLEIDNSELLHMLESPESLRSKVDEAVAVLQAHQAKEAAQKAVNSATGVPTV
Chain of 26S proteasome non-ATPase regulatory subunit 14 (O00487 whole entry): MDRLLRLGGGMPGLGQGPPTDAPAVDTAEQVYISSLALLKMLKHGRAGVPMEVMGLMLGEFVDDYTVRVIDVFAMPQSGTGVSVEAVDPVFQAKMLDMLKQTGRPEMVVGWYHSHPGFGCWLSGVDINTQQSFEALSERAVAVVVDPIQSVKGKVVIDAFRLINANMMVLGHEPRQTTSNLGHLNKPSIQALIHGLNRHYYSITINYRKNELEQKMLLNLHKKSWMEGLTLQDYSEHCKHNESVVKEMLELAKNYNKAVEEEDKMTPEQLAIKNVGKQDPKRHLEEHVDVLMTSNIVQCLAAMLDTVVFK
Chain of Bifunctional protein GlmU (P9WMN3 whole entry): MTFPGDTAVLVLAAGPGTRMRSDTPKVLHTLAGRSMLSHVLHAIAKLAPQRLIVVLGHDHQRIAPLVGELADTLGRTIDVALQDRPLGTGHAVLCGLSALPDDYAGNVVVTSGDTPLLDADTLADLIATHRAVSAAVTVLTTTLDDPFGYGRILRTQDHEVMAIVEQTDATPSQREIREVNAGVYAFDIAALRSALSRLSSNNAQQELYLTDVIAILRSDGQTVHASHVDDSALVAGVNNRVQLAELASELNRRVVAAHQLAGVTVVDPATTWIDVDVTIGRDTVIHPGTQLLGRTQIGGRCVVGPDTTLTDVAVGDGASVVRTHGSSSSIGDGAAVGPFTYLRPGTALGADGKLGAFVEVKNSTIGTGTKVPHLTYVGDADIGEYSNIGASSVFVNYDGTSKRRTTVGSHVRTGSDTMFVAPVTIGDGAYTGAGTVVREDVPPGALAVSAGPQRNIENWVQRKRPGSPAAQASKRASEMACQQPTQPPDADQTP
Chain of Beta Lactamase (Q932Y6 whole entry): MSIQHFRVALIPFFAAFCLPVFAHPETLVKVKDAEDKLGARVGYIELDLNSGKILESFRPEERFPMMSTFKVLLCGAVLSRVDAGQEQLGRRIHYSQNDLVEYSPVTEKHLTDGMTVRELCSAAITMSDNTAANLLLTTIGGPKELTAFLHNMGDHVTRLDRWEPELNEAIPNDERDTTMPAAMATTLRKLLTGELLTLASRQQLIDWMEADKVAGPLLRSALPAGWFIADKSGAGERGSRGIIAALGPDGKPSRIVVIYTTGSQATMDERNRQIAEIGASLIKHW
Chain of 72 kDa type IV collagenase (P08253 whole entry): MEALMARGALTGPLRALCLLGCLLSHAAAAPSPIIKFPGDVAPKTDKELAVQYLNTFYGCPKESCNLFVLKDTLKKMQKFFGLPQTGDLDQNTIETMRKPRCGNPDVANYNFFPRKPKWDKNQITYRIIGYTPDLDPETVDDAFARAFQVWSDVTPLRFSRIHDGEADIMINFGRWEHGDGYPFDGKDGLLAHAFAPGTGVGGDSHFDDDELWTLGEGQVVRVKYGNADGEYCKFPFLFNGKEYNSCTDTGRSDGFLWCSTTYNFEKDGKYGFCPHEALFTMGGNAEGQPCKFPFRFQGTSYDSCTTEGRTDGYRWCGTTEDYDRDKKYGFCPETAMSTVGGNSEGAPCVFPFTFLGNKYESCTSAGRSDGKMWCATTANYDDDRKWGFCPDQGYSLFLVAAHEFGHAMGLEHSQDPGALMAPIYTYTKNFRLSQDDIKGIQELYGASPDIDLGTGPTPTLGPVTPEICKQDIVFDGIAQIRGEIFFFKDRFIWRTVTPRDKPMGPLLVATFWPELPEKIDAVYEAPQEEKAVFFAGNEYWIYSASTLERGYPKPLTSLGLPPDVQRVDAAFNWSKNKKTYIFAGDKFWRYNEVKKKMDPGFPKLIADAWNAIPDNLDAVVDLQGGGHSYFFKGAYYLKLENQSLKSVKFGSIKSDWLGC

CCCNC(=O)c1nnsc1[S+]([O-])c1ccc(Cl)cc1 (centres undefined)
inactive: IC50 [8] > 66 µM | IC50 (Beta Lactamase) 15.6 µM | IC50 [15] > 66 µM
inconclusive: EC50 (Protein RecA) 24.4 µM
active: AC50 [1] 12.8 µM | AC50 [2] 2.29 µM | IC50 (CHO) 1.81 µM | EC50 [3] 2.21 µM | AC50 [4] 7.07 µM | AC50 [5] 1.26 µM | AC50 [6] 29.7 µM | AC50 [7] 6.98 µM | AC50 [9] 2.2 µM | AC50 [10] 33.8 µM | EC50 [11] 0.886 µM | AC50 [12] 4.44 µM | IC50 [13] 103 µM | EC50 [14] 7.5 µM | AC50 [16] 1.85 µM | AC50 [17] 16 µM

CC(Oc1ccc(Br)cc1)C(=O)Nc1ccc(S(=O)(=O)N(C)C2CCN(C)CC2)cc1 (centres undefined)
active: EC50 (cells) 0.073 µM | EC50 [3] 8.64 µM | EC50 [11] < 0.1 µM

NS(=O)(=O)c1cc2c(cc1C(F)(F)F)NCNS2(=O)=O [HYDROFLUMETHIAZIDE]
> 100 µM (not active): IC50 [18]

Cn1cc(C(=O)NCc2cccs2)c(=O)c2cc(S(=O)(=O)N3CCCC3)ccc21
active: IC50 (Prothrombin [19]) 0.691 µM

COc1ccc2nc3c(O)n(/N=C/c4ccc(OC)c(CN5CCCC5)c4)c(C)nc-3c2c1
> 150 µM (not active): EC50 (Streptococcus)
inactive: IC50 [20] > 100 µM
> 60 µM (not active): EC50 [3]
active: EC50 (cells) 0.336 µM | IC50 [21] 13 µM | EC50 [11] < 0.1 µM | EC50 (Streptokinase A) 32.3 µM | IC50 (Prothrombin [22]) 87.9 µM | EC50 [23] 17.8 µM
